Measured values as given in US10202360B2 (CELGENE QUANTICEL RESEARCH, INC., priority 2016, dated 2019).

Molecular target: CREBBP (Homo sapiens (Human), UniProt Q92793)
Assay: In vitro enzyme inhibition assay - CREBBP inhibition (AlphaScreen, biotinylated H4-tetraacetyl peptide)
Type: binding
Conditions: Table 28; AlphaScreen, H4-tetraacetyl peptide
Procedure: Determination of the IC50 for the CREBBP inhibitors disclosed herein was performed as follows: CREBBP was cloned and expressed in E. Coli as His-tag protein and purified by Nickel affinity and gel-filtration chromatography. […] CREBBP binding and inhibition was assessed by monitoring the interaction of biotinylated H4-tetraacetyl peptide (AnaSpec, H4K5/8/12/16(Ac), biotin-labeled) with the target using the AlphaScreen technology (Perkin Elmer). In a 384-well ProxiPlate CREBBP (50 nM final) was combined with peptide (20 nM final) in 50 mM HEPES (pH 7.3), 10 mM NaCl, 0.25 mM TCEP, 0.1% (w/v) BSA, and 0.005% (w/v) Brij-35 either in the presence of DMSO (final 0.4% DMSO) or compound dilution series in DMSO. After 20-minute incubation at room temperature, Alpha streptavidin donor beads and Nickel Chelate acceptor beads were added to a final concentration of 5 μg/mL. After two hours of equilibration, plates were read on an Envision instrument and the IC50 was calculated using a four parameter non-linear curve fit.
The ability of the compounds disclosed herein to inhibit CBP activity was quantified and the respective IC50 value was determined.

Chain of CREBBP (Q92793 1081-1197): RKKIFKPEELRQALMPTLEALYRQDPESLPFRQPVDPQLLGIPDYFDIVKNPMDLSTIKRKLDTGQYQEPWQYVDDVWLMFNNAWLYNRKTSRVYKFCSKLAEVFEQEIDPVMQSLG

IC50 [nM]	SMILES
500 to 5000	Cc1cc(-c2cc(NS(=O)(=O)C(C)C)nc(Oc3ccc(F)cc3F)n2)cn(C(C)C)c1=O [Example 47, Propane-2-sulfonic acid [2-(2,4-difluoro-phenoxy)-6-(1-isopropyl-5-methyl-6-oxo-1,6-dihydro-pyridin-3-yl)-pyrimidin-4-yl]-amide]
> 5000	Cc1cc(-c2cc(NS(=O)(=O)C(C)C)nc(Oc3ccc(F)cc3F)n2)cn(CC(C)C)c1=O [Example 48, Propane-2-sulfonic acid [2-(2,4-difluoro-phenoxy)-6-(1-isobutyl-5-methyl-6-oxo-1,6-dihydro-pyridin-3-yl)-pyrimidin-4-yl]-amide]
< 500	Cc1cc(-c2cc(NS(=O)(=O)C(C)C)nc(Oc3ccc(F)cc3F)n2)cn(CC2CC2)c1=O [Example 49, Propane-2-sulfonic acid [6-(1-cyclopropylmethyl-5-methyl-6-oxo-1,6-dihydro-pyridin-3-yl)-2-(2,4-difluoro-phenoxy)-pyrimidin-4-yl]-amide]
> 5000	Cc1cc(-c2cc(NS(=O)(=O)C(C)C)nc(Oc3ccc(F)cc3F)n2)cn(CC2CCC2)c1=O [Example 50, Propane-2-sulfonic acid [6-(1-cyclobutylmethyl-5-methyl-6-oxo-1,6-dihydro-pyridin-3-yl)-2-(2,4-difluoro-phenoxy)-pyrimidin-4-yl]-amide]
500 to 5000	CC(=O)OCCn1cc(-c2cc(NS(=O)(=O)C(C)C)nc(Oc3ccc(F)cc3F)n2)cc(C)c1=O [Example 51, Acetic acid 2-{5-[2-(2,4-difluoro-phenoxy)-6-(propane-2-sulfonylamino)-pyrimidin-4-yl]-3-methyl-2-oxo-2H-pyridin-1-yl}-ethyl ester]
500 to 5000	Cc1cc(-c2cc(NS(=O)(=O)C(C)C)nc(Oc3ccc(F)cc3F)n2)cn(CC(F)(F)F)c1=O [Example 52, Propane-2-sulfonic acid {2-(2,4-difluoro-phenoxy)-6-[5-methyl-6-oxo-1-(2,2,2-trifluoro-ethyl)-1,6-dihydro-pyridin-3-yl]-pyrimidin-4-yl}-amide]
500 to 5000	COCCn1cc(-c2cc(NS(=O)(=O)C(C)C)nc(Oc3ccc(F)cc3F)n2)cc(C)c1=O [Example 53, Propane-2-sulfonic acid {2-(2,4-difluoro-phenoxy)-6-[1-(2-methoxy-ethyl)-5-methyl-6-oxo-1,6-dihydro-pyridin-3-yl]-pyrimidin-4-yl}-amide]
500 to 5000	CCCS(=O)(=O)Nc1cc(-c2cc(C)c(=O)n(C3CC3)c2)nc(Oc2c(C)cccc2C)n1 [Example 54, Propane-1-sulfonic acid [6-(1-cyclopropyl-5-methyl-6-oxo-1,6-dihydro-pyridin-3-yl)-2-(2,6-dimethyl-phenoxy)-pyrimidin-4-yl]-amide]
500 to 5000	CCCS(=O)(=O)Nc1cc(-c2cc(C)c(=O)n(C3COC3)c2)nc(Oc2c(C)cccc2C)n1 [Example 55, Propane-1-sulfonic acid [2-(2,6-dimethyl-phenoxy)-6-(5-methyl-1-oxetan-3-yl-6-oxo-1,6-dihydro-pyridin-3-yl)-pyrimidin-4-yl]-amide]
< 500	CCCCS(=O)(=O)Nc1cc(Oc2c(C)cccc2C)nc(-c2cc(C)c(=O)n(C)c2)n1 [Example 56, Butane-1-sulfonic acid [2-(1,5-dimethyl-6-oxo-1,6-dihydro-pyridin-3-yl)-6-(2,6-dimethyl-phenoxy)-pyrimidin-4-yl]-amide]
< 500	Cc1cc(-c2cc(NS(=O)(=O)C(C)C)nc(Oc3cccc4ccn(C)c34)n2)cn(C)c1=O [Example 57, Propane-2-sulfonic acid [6-(1,5-dimethyl-6-oxo-1,6-dihydro-pyridin-3-yl)-2-(1-methyl-1H-indol-7-yloxy)-pyrimidin-4-yl]-amide]
< 500	Cc1cc2c(Oc3nc(NS(=O)(=O)C(C)C)cc(-c4cc(C)c(=O)n(C)c4)n3)cccc2o1 [Example 58, N-(6-(1,5-dimethyl-6-oxo-1,6-dihydropyridin-3-yl)-2-((2-methylbenzofuran-4-yl)oxy)pyrimidin-4-yl)propane-2-sulfonamide]
